Among the test systems are U251 CNS; RPMI-8226 leukemia; KM12 colon; HCC-2998 colon; HL-60(TB) leukemia; CCRF-CEM leukemia; HCT-116 colon; NCI-H226 lung; MALME-3M melanoma; MDA-MB-435.
Assay in all cases: growth of human tumour cells (NCI), 48 h

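96-well plates; 48 h exposure; 5 concentrations. Endpoints by linear interpolation between flanking doses. Not reached: highest tested concentration assigned. Here, GI50 denotes the concentration required for 50% inhibition of growth. TGI is the concentration that stops growth completely.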 Some results are limits rather than exact numbers.

On to `C[C@]12CCC(=O)C=C1CC[C@@H]1C2CC[C@@]2(C)C1CC[C@@H]2OC(=O)C12OC1CCC2=O` (some centres undefined), for which the TGI was 29.1 µM in the experiment with U251 CNS; 52.1 µM in the experiment on RPMI-8226 leukemia; 35 µM in the experiment with KM12 colon; 59 µM with HCC-2998 colon; 33.5 µM in the experiment on HL-60(TB) leukemia; 32.6 µM with CCRF-CEM leukemia. The TGI with HCT-116 colon turned out to be 29.2 µM; with NCI-H226 lung it was 38.2 µM; in the experiment with MALME-3M melanoma it was 33.9 µM.
With `O=c1[nH]c(-c2ccc(Cl)cc2)cc2ccsc12`, the TGI is over 100 µM in the experiment with U251 CNS; 19.1 µM with RPMI-8226 leukemia; over 100 µM with KM12 colon; 9.61 µM in the experiment on HCC-2998 colon; over 100 µM in the experiment with HL-60(TB) leukemia; over 100 µM in the experiment on HCT-116 colon. Also, the TGI is over 100 µM with NCI-H226 lung and 5.8 µM in the experiment on MALME-3M melanoma.
With `COC(=O)CC1NC(=O)C1C(C)(OC)OC` (centres undefined), the TGI in the experiment with U251 CNS, in the experiment with RPMI-8226 leukemia, in the experiment on HCC-2998 colon, in the experiment on HL-60(TB) leukemia, with CCRF-CEM leukemia and in the experiment on HCT-116 colon was over 100 µM throughout. Besides, the TGI in the experiment with NCI-H226 lung and in the experiment on MALME-3M melanoma was over 100 µM each time.
In the case of `COc1cc2nc3n(c(=O)c2cc1OC)CCCCC3`, the TGI with MDA-MB-435, with U251 CNS, in the experiment with RPMI-8226 leukemia, in the experiment on KM12 colon, with HL-60(TB) leukemia and with CCRF-CEM leukemia was over 100 µM throughout. Besides, the TGI in the experiment with HCT-116 colon, in the experiment on NCI-H226 lung and in the experiment with MALME-3M melanoma was over 100 µM throughout.
With `CN(C)C=Nc1c2c(nc3ccccc13)CCCC2`, the TGI in the experiment on MDA-MB-435, in the experiment with U251 CNS, in the experiment with RPMI-8226 leukemia, with HL-60(TB) leukemia, in the experiment with CCRF-CEM leukemia and with HCT-116 colon was over 100 µM throughout. Further, the TGI with NCI-H226 lung and in the experiment with MALME-3M melanoma was over 100 µM each time.
On to `Cc1csc2c(=O)n(COCc3ccccc3)c(=O)[nH]c12`, for which the TGI in the experiment on MDA-MB-435, in the experiment on U251 CNS, in the experiment with RPMI-8226 leukemia, with KM12 colon, in the experiment on HL-60(TB) leukemia and in the experiment with CCRF-CEM leukemia was over 100 µM each time. In addition, the TGI with HCT-116 colon, in the experiment on NCI-H226 lung and with MALME-3M melanoma was over 100 µM throughout.
As for `Cn1c(=O)oc2cc(C(=S)N3CCCCC3)ccc21`, the TGI in the experiment with MDA-MB-435, in the experiment with U251 CNS, in the experiment on RPMI-8226 leukemia, with KM12 colon, in the experiment with HL-60(TB) leukemia and with CCRF-CEM leukemia was over 100 µM each time. In addition, the TGI with HCT-116 colon, in the experiment with NCI-H226 lung and in the experiment on MALME-3M melanoma was over 100 µM each time.
Regarding `COc1cc(O)c2c(=O)c(OC)c(-c3ccc(OC)c(OC)c3)oc2c1.[Sn]`, the TGI in the experiment with RPMI-8226 leukemia, with HCC-2998 colon, with HL-60(TB) leukemia, in the experiment with NCI-H226 lung and in the experiment with MALME-3M melanoma was over 100 µM throughout. Further, the GI50 with HCC-2998 colon and in the experiment with MALME-3M melanoma was over 100 µM throughout.
For `Brc1ccc(C[N+]23CN4CN(CN(C4)C2)C3)cc1`, the TGI in the experiment on U251 CNS was over 100 µM; with RPMI-8226 leukemia, 59.5 µM; in the experiment on KM12 colon it was over 100 µM; in the experiment with HCC-2998 colon, over 100 µM; with HL-60(TB) leukemia it was 58.2 µM; in the experiment on CCRF-CEM leukemia, 62.9 µM. For the same compound, the TGI in the experiment on HCT-116 colon is 79.8 µM; with MALME-3M melanoma it was 71.5 µM.
With `CN(C)CCNC(=O)c1cccc2[nH]c(-c3ccc(Cl)cc3)nc12`, the TGI turned out to be 18 µM in the experiment on U251 CNS; 8.78 µM with RPMI-8226 leukemia; 20.9 µM in the experiment on KM12 colon; 16.9 µM in the experiment on HCC-2998 colon; 12 µM in the experiment on HL-60(TB) leukemia; 35.7 µM in the experiment on CCRF-CEM leukemia. For the same compound, the figures for the TGI in the experiment with HCT-116 colon, in the experiment on NCI-H226 lung and in the experiment with MALME-3M melanoma were 13.8 µM, 14.4 µM and 19.9 µM, respectively.
On to `COc1ccc(C=NCCCN=Cc2ccc(OC)cc2O)c(O)c1`, for which the TGI in the experiment on MDA-MB-435, in the experiment on U251 CNS, in the experiment with RPMI-8226 leukemia, in the experiment on KM12 colon, with HL-60(TB) leukemia and in the experiment on CCRF-CEM leukemia was over 100 µM throughout. Besides, the TGI is over 100 µM in the experiment with HCT-116 colon, 59.3 µM in the experiment with NCI-H226 lung and 71.5 µM with MALME-3M melanoma.
For `Cc1cc(=O)[nH]c(NNC(C#N)c2ccc(N(C)C)cc2)n1` (centres undefined), the TGI with U251 CNS, in the experiment with RPMI-8226 leukemia, in the experiment on KM12 colon, in the experiment with HL-60(TB) leukemia, with CCRF-CEM leukemia and in the experiment with HCT-116 colon was over 100 µM in each case. For the same compound, the TGI in the experiment on NCI-H226 lung and with MALME-3M melanoma was over 100 µM each time.
For `O=C1NC2OC(CO)C(O)C(O)C2O1` (centres undefined), the TGI in the experiment with U251 CNS, in the experiment on KM12 colon, in the experiment with HCC-2998 colon, in the experiment on HL-60(TB) leukemia, in the experiment on CCRF-CEM leukemia and in the experiment with HCT-116 colon was over 100 µM in each case. The compound further showed a TGI in the experiment on MALME-3M melanoma of over 100 µM.
As to `COC(=O)C1=C(C)NC2=C(C(=O)c3ccccc32)C1c1cn[nH]c1-c1ccccc1` (centres undefined), the TGI with MDA-MB-435, in the experiment with U251 CNS, in the experiment with RPMI-8226 leukemia, in the experiment with KM12 colon, in the experiment with HL-60(TB) leukemia and in the experiment on CCRF-CEM leukemia was over 100 µM each time. Also, the TGI with HCT-116 colon, in the experiment on NCI-H226 lung and in the experiment on MALME-3M melanoma was over 100 µM throughout.
As for `COc1ccc(N2C(=O)C(=O)C3(CCCCC3)C2=O)c(OC)c1OC`, the TGI in the experiment on MDA-MB-435, with U251 CNS, in the experiment on RPMI-8226 leukemia, with KM12 colon, with HL-60(TB) leukemia and in the experiment with CCRF-CEM leukemia was over 100 µM each time. Further, the TGI with HCT-116 colon, with NCI-H226 lung and in the experiment on MALME-3M melanoma was over 100 µM each time.
On to `CCN(CCN(CC)C(=O)NC)C(=O)NC`, for which the TGI in the experiment on U251 CNS, in the experiment with RPMI-8226 leukemia, in the experiment with HCC-2998 colon, in the experiment on HL-60(TB) leukemia, with CCRF-CEM leukemia and with HCT-116 colon was over 100 µM in each case. The TGI in the experiment on NCI-H226 lung and in the experiment on MALME-3M melanoma was over 100 µM throughout.

These data come from PubChem BioAssay (NCI).
